PMC10018608 (Signal Transduction and Targeted Therapy, 2023)
Read-outs that look alike come from different tables or passages of the source.

Columns and labels:
in vitro = in vitro ADME; conditions: human, microsomes, HLM 0.5 mg/mL, 1 μM
[1] = Monkey
[2] = for Corpora lutea / Implantation sites / Live embryos / Resorptions: cesarean section observation; for appearance malformation rate (%): fetal appearance
in vivo [3] = conditions: male, beagle, dog
in vivo [4] = conditions: male, ICR, mouse
[5] = female, SD, rat, in vivo, 1000 mg/kg

`COC[C@@H](NC(=O)C1CCCC(F)(F)C1)C(=O)N[C@H](Cc1ccccc1)C(=O)C(=O)NCc1nccs1` (stereo partly drawn) [SY110, N-((R)-1-(((R)-3,4-dioxo-1-phenyl-4-((thiazol-2-ylmethyl)amino)butan-2-yl)amino)-3-methoxy-1-oxopropan-2-yl)-3,3-difluorocyclohexane-1-carboxamide] showed a remaining at 0 h (in vitro; 0 min, Mean, read-out: Percent Remaining (%) 0 min) of 100%, a remaining at 5 min (in vitro; 5 min, Mean, read-out: Percent Remaining (%) 5 min) of 80.7% and a remaining at […] (in vitro; 15 min, Mean, read-out: Percent Remaining (%) 15 min) of 65.4%. For the same compound, the remaining at 0.5 h (in vitro; 30 min, Mean, read-out: Percent Remaining (%) 30 min) was 48%, the remaining at 0.75 h (in vitro; 45 min, Mean, read-out: Percent Remaining (%) 45 min) was 37.2% and the remaining at 1 h (in vitro; 60 min, Mean, read-out: Percent Remaining (%) 60 min) was 29.8%. The CLint scaled (in vitro; scaling factor 1254.2) was 49.2 mL/min/kg, the MTRlast ([1]; i.v. (1 mg/kg)) was 0.90 ± 0.18 h and the MTRlast ([1]; p.o. (10 mg/kg)) was 4.71 ± 0.89 h. For the same compound, the “Results, acute toxicity study” value (mice, p.o., 1000 mg/kg, single dose) was “No mice died”, the “maximal tolerated single dose” value (text says rats) was “at least 1.0 g/kg” and the “Abnormal initial position of common carotid artery” value [2, 5] was 0.0 ± 0.0. For the same compound, the “Abnormal initial position of subclavian artery” value [2, 5] was 0.0 ± 0.0, the “Abnormal position of umbilical artery” value [2, 5] was 0.0 ± 0.0 and the “Absent of aortic arch” value [2, 5] was 0.0 ± 0.0. For the same compound, the “Absent of innominate artery” value [2, 5] was 0.0 ± 0.0, the “Rib: 14 Ribs – [V]” value [2, 5] was 6.9 ± 10.1 and the “Rib: Shortened #13 – [V]” value [2, 5] was 2.9 ± 6.4. The “Skull: Interparietal bone, incomplete ossification – [V]” value [2, 5] was 0.0 ± 0.0, the “Skull: Parietal bone, incomplete ossification – [V]” value [2, 5] was 0.0 ± 0.0 and the “Visceral malformation rate (%)” value [2, 5] was 0.0 ± 0.0%. For the same compound, the Corpora lutea ([2]; rat, 100 mg/kg) was 16.2 ± 2.1, the Implantation sites ([2]; rat, 100 mg/kg) was 15.0 ± 3.5 and the Live embryos ([2]; rat, 100 mg/kg) was 14.5 ± 3.6. The Resorptions ([2]; rat, 100 mg/kg) was 0.5 ± 0.8, the Corpora lutea ([2]; rat, 300 mg/kg) was 17.7 ± 1.5 and the Implantation sites ([2]; rat, 300 mg/kg) was 16.9 ± 1.5. The Live embryos ([2]; rat, 300 mg/kg) was 16.3 ± 1.6, the Resorptions ([2]; rat, 300 mg/kg) was 0.6 ± 0.5 and the Corpora lutea ([2]; rat, 1000 mg/kg) was 17.4 ± 2.5. It also gave an Implantation sites ([2]; rat, 1000 mg/kg) of 17.0 ± 2.5, a Live embryos ([2]; rat, 1000 mg/kg) of 16.4 ± 2.1 and a Resorptions ([2]; rat, 1000 mg/kg) of 0.6 ± 0.9. The “appearance malformation rate (%)” value ([2]; rat, 100 mg/kg) was 0.0 ± 0.0%, the “appearance malformation rate (%)” value ([2]; rat, 300 mg/kg) was 0.0 ± 0.0% and the “appearance malformation rate (%)” value ([2]; rat, 1000 mg/kg) was 0.0 ± 0.0%. The “embryo-fetal development study outcome” value ([2]; rats, 1000 mg/kg/day (the highest dose tested)) was “no observed SY110-related maternal toxicity, reproductive toxicity, and effect on embryo-fetal viability”, the AUC(0-inf) (in vivo [3]; iv, 1 mg/kg) was 628 ± 113 ng·h/mL and the AUC(0-t) (in vivo [3]; iv, 1 mg/kg) was 624 ± 113 ng·h/mL. For the same compound, the Cmax (in vivo [3]; iv, 1 mg/kg) was 1270 ± 333 ng/mL, the Tmax (in vivo [3]; iv, 1 mg/kg) was 4.98 min and the clearance (in vivo [3]; iv, 1 mg/kg) was 27.1 mL/min/kg. The half-life (in vivo [3]; iv, 1 mg/kg) was 36.6 ± 3 min, the AUC(0-inf) (in vivo [3]; po, 10 mg/kg) was 8290 ± 378 ng·h/mL and the AUC(0-t) (in vivo [3]; po, 10 mg/kg) was 8240 ± 370 ng·h/mL. It also gave a Cmax (in vivo [3]; po, 10 mg/kg) of 3060 ± 136 ng/mL, a Tmax (in vivo [3]; po, 10 mg/kg) of 60 min and a bioavailability (in vivo [3]; po, 10 mg/kg) of 132%. The half-life (in vivo [3]; po, 10 mg/kg) was 335 ± 74.4 min, the AUC(0-inf) (in vivo [4]; iv, 1 mg/kg) was 87.1 ± 7.81 ng·h/mL and the AUC(0-t) (in vivo [4]; iv, 1 mg/kg) was 85.9 ± 7.6 ng·h/mL. The Cmax (in vivo [4]; iv, 1 mg/kg) was 285 ± 16.4 ng/mL, the Tmax (in vivo [4]; iv, 1 mg/kg) was 4.8 min and the clearance (in vivo [4]; iv, 1 mg/kg) was 192 ± 16.4 mL/min/kg. For the same compound, the half-life (in vivo [4]; iv, 1 mg/kg) was 16.2 ± 10.2 min, the AUC(0-inf) (in vivo [4]; po, 150 mg/kg) was 15700 ± 4420 ng·h/mL and the AUC(0-t) (in vivo [4]; po, 150 mg/kg) was 15100 ± 5140 ng·h/mL. It also gave a Cmax (in vivo [4]; po, 150 mg/kg) of 4080 ± 636 ng/mL, a Tmax (in vivo [4]; po, 150 mg/kg) of 19.8 ± 8.4 min and a half-life (in vivo [4]; po, 150 mg/kg) of 195 ± 61.8 min.
